Experimental data published in patent US20020058591A1, “Herbicidal compositions” (priority 2000, published 2002).

Key:
Assay type in all cases: in vivo
[1] = test system: Echinochloa crus-galli (ECHCG); assay: Example B.2 post-emergence spray, greenhouse, visual scoring; details: 28 days after application
Protocol: (§1) The individual components herbicide, surfactant and humectant with regard to type and application rate as stated in Tables 1-4 were added with stirring to a water application rate of 300 l/ha so that a homogeneous spray mixture was formed. The active substances rimsulfuron and nicosulfuron in the commercially available formulations Cato® WG25 (Du Pont) and Motivell® (BASF) were used for this purpose, respectively. Iodosulfuron-methyl-sodium and mesosulfuron-methyl were added in each case as 20 percent water-dispersible powders. Foramsulfuron was used as 50 percent water-dispersible granules. The surfactants used were Genapol® LRO as 70 percent paste (Clariant) and Synperonic® A7 (Unichema).
(§2) Visual scoring was carried out using a percentage scale of 0%=no damage to 100%=all plants dead.
(§3) Seeds of the harmful plants LOLMU, ALOMY, AVEFA, ECHCG and DIGSA were sown in a sandy loam soil in round pots type 7 in a greenhouse and watered slightly. A daytime temperature of 22 to 24° C. and a nighttime temperature of 16 to 18° C. was adhered to, a uniform day length of 16 hours being achieved by additional illumination with sodium vapor lamps (approx. 7000 lux). The relative atmospheric humidity was 60 to 80%. Two weeks after sowing, the plants were treated on a laboratory spray conveyor with the spray mixtures of rimsulfuron (A2), nicosulfuron (A3), iodosulfuron-methyl sodium (A4) and foramsulfuron (A5) and of combinations of A2, A3, A4 and A5 with Genapol® LRO and sodium lactate, the spray mixtures being prepared as in Example A. The water application rate for the spray application of the preparations was 300 l/ha. After the treatment, the plants were returned to the greenhouse.

[2] = test system: Lolium multiflorum (LOLMU); assay: as above; details: 28 days after application
Protocol: as §1, §2, §3

[3] = test system: Alopecurus myosuroides (ALOMY); assay: as above; details: 28 days after application
Protocol: as §1, §2, §3

[4] = test system: Digitaria adscendens (DIGSA); assay: as above; details: 28 days after application
Protocol: as §1, §2, §3

Avena fatua (AVEFA) [5] = assay: as above; details: 28 days after application
Protocol: as §1, §2, §3

Bromus tectorum (BROTE) = assay: Example B.3 post-emergence spray, pots in the open, minimal irrigation, visual scoring; details: A1 10 g a.i./ha (surfactant 300, humectant 300 g a.i./ha where combined), 28 days after application
Protocol: as §1, §2
Seeds of the harmful plant BROTE were sown in a sandy loam soil in round pots type 13 in the open and watered slightly. During the entire experimental period, the substrate only received minimal irrigation. Four weeks after sowing, the plants were treated on a laboratory spray conveyor with spray mixtures of components mesosulfuron-methyl (A1), Genapol® LRO and sodium lactate, A1, Synperonic®A7 and sodium lactate and A1, Genapol® LRO and propylene glycol, the spray mixtures being prepared as in Example A. The water application rate for the spray application of the preparations was 300 l/ha. […]

[6] = test system: Lolium multiflorum (LOLMU); assay: Example B.1 post-emergence spray, controlled-environment cabinet, minimal irrigation, visual scoring; details: A1 60 g a.i./ha (Genapol LRO 324, sodium lactate 150 g a.i./ha where combined); 14 days after application; 0%=no damage, 100%=all plants dead; 50% rel. humidity
Protocol: as §1, §2
(§4) Seeds of the harmful plants AVEFA and LOLMU were sown in a sandy loam soil in round pots type 13 in a controlled-environment cabinet and watered slightly. During the entire experiment period, the substrate only received minimal irrigation. A daytime temperature of 18° C. and a nighttime temperature of 16° C. was adhered to, a uniform day length of 16 hours being achieved by additional illumination with sodium vapor lamps (approx. 7000 lux). The relative atmospheric humidity was 50%. […]

Avena fatua (AVEFA) [7] = assay: as above; details: A1 60 g a.i./ha (Genapol LRO 324, sodium lactate 150 g a.i./ha where combined); 14 days after application; 0%=no damage, 100%=all plants dead; 50% rel. humidity
Protocol: as §1, §2, §4

Compound | Action [%] against harmful plants ECHCG ([1]; herbicide 20 g a.i./ha) [%] | Action [%] against harmful plants LOLMU ([2]; herbicide 20 g a.i./ha) [%] | Action [%] against harmful plants ALOMY ([3]; herbicide 20 g a.i./ha) [%] | Action [%] against harmful plants DIGSA ([4]; herbicide 20 g a.i./ha) [%] | Action [%] against harmful plants AVEFA (Avena fatua (AVEFA) [5]; herbicide 20 g a.i./ha) [%] | further results
COc1cc(OC)nc(NC(=O)NS(=O)(=O)c2cc(NC=O)ccc2C(=O)N(C)C)n1 [A5, N,N-dimethyl-2-[3-(4,6-dimethoxypyrimidin-2-yl)ureidosulfonyl]4-formylamino-benzamide] | 30 | 50 | 70 | 0 | 60 | 
COc1cc(OC)nc(NC(=O)NS(=O)(=O)c2ncccc2C(=O)N(C)C)n1 [A3, 1-(3-N,N-dimethylaminocarbonylpyridin-2-ylsulfonyl)-3-(4,6-dimethoxypyrimidin-2-yl)urea] | 0 |  | 0 |  | 0 | 
COC(=O)c1ccc(CNS(C)(=O)=O)cc1S(=O)(=O)NC(=O)Nc1nc(OC)cc(OC)n1 [A1, methyl 2-[3-(4,6-dimethoxypyrimidin-2-yl)ureidosulfonyl]4-methanesulfonamido-methylbenzoate] |  |  |  |  |  | Action [%] against harmful plants BROTE (Bromus tectorum (BROTE)): 12.5%; Action [%] against harmful plants LOLMU [6]: 10%; Action [%] against harmful plants AVEFA (Avena fatua (AVEFA) [7]): 10%
CCS(=O)(=O)c1cccnc1S(=O)(=O)NC(=O)Nc1nc(OC)cc(OC)n1 [A2] |  |  |  |  |  | Action [%] against harmful plants ECHCG ([1]; herbicide 5 g a.i./ha): 10%; Action [%] against harmful plants LOLMU ([2]; herbicide 5 g a.i./ha): 60%; Action [%] against harmful plants ALOMY ([3]; herbicide 5 g a.i./ha): 70%; Action [%] against harmful plants DIGSA ([4]; herbicide 5 g a.i./ha): 30%; Action [%] against harmful plants AVEFA (Avena fatua (AVEFA) [5]; herbicide 5 g a.i./ha): 0%
COC(=O)c1ccc(I)cc1S(=O)(=O)NC(=O)Nc1nc(C)nc(OC)n1 [A4, 3-(4-methoxy-6-methyl-1,3,5-triazin-2-yl)-1-(2-methoxycarbonyl-5-iodophenyl-sulfonyl)urea] | 70 | 60 | 50 | 30 | 60 | 
